Type: in vitro ADME
Conditions: 0 min, pH 7.4
Experimental: The liver is the main organ of drug metabolism in the body. Subcellular fractions such as liver microsomes are useful in vitro models of hepatic clearance as they contain many of the drug metabolising enzymes found in the liver. Liver microsomes are subcellular fractions which contain membrane bound drug metabolising enzymes. The microsomes are incubated with the test compound at 37° C. in the presence of the co-factors, which initiates the reaction. The reaction is terminated by the addition of organic solvents containing internal standard. Following centrifugation, the supernatant is analysed on the LC-MS/MS. The disappearance of test compound is monitored over certain time period. Here, a microsome stability assay was used to investigate the metabolism of the compounds; using this assay it is possible to measure in vitro the intrinsic clearance or to identify metabolites formed. For a standard assay the following solutions were used: 360 μL Microsomal solution (1.1 mg/mL in phosphate buffer), 360 μL NADP-regeneration mix (containing NADP (10 mM), MgCl2 (50 mM), glucose-6-phosphate (50 mM), glucose-6-phosphate dehydrogenase (50 U/ml)) and 40 μL phosphate buffer (100 mM, pH 7.4). […] 5 uL of each sample was injected to a UPLC/HRMS system and the peak areas of the extracted ion chromatograms were determined

Area rel. [%], PC: 100.0%
SMILES: O=C(O)Cc1ccccc1Nc1c(Cl)cccc1Cl [Diclo, Diclofenac]

From patent US20230202973A1, “BARNESIN A, DERIVATIVES AND USES THEREOF” (Leibniz-Institut Für Naturstoff-Forschung Und …, priority 2018, published 2023)
